From patent US10894768B2, “Salt of (R)-(1-methylpyrrolidine-3-yl)methyl(3′-chloro-4′-fluoro-[1,1′-biphenyl]-2-yl)carbamate and crystal form thereof” (Dong-A St Co., Ltd., priority 2016, dated 2021)

How the values were obtained:
Assay type in all cases: physicochemical
[1] = Accelerated and stress stability of forms I, II and III; details: for Crystal form / Relative purity (%): oxalate; for Stability: under the accelerated and stress conditions
Experimental: X-ray powder diffraction (XRPD) pattern was obtained by means of a solid-phase detector of BRUKER D8 ADVANCE model using CuKα radiation at 1.54178 Å (40 kV, 40 mA). An analysis was performed through measurement at an angle 2θ in a range of 3° to 50° with a step size of 0.02°.
(§1) 4. Liquid Chromatography (HPLC)
(§2) Detector: Ultraviolet absorptiometer (detection wavelength of 244 nm)
(§3) Column: Waters, XBridge C18, 4.6*150 mm, 5 um
(§4) Column temperature: 40° C.
(§5) Mobile phase buffer: A 0.01M (NH4)HCO3 solution was prepared and adjusted to pH 10.5 by means of ammonia water.
(§6) Mobile phase A: Buffer:Acetonitrile=8:2
(§7) Mobile phase B: Acetonitrile
(§8) Sample solution: 1.0 mg/mL in 50% methanol
The accelerated test (accelerated condition: 40° C./RH 75%) and the stress test (stress condition: 60° C.) were performed on the form I of (R)-(1-methylpyrrolidine-3-yl)methyl(3′-chloro-4′-fluoro-[1,1′-biphenyl]-2-yl)carbamate oxalate prepared in Example 2 above and the form II of (R)-(1-methylpyrrolidine-3-yl)methyl(3′-chloro-4′-fluoro-[1,1′-biphenyl]-2-yl)carbamate oxalate and the form III of (R)-(1-methylpyrrolidine-3-yl)methyl(3′-chloro-4′-fluoro-[1,1′-biphenyl]-2-yl)carbamate oxalate prepared in Examples 3 and 9, wherein analysis results thereof were shown in Table 3.

[2] = Stress stability in a solid state (stress test)
Experimental: as §1, §2, §3, §4, §5, §6, §7, §8

[3] = Accelerated stability in the solid state (accelerated test, 40° C./RH 75%); details: for Property / Relative purity (%): 40° C./RH 75%; for Change in purity / Physical state: under the accelerated condition
Experimental: as §1, §2, §3, §4, §5, §6, §7, §8

Molecule	Crystal form ([1]; 40° C./RH 75% Week 1)	Relative purity (%) ([1]; 40° C./RH 75% Week 1)	Crystal form ([1]; 40° C./RH 75% Week 3)	Relative purity (%) ([1]; 40° C./RH 75% Week 3)	Crystal form ([1]; 60° C. Week 1)	Relative purity (%) ([1]; 60° C. Week 1)	Crystal form ([1]; 60° C. Week 3)	Relative purity (%) ([1]; 60° C. Week 3)	Crystal form ([1]; Early)	Relative purity (%) ([1]; Early)	Stability [1]	Property ([2]; 60° C., Week 1)	Relative purity ([2]; 60° C., Week 1)	Property ([2]; 60° C., Week 2)	Relative purity ([2]; 60° C., Week 2)	Property ([2]; RH 90%, Week 1)	Relative purity ([2]; RH 90%, Week 1)	Property ([2]; RH 90%, Week 2)	Relative purity ([2]; RH 90%, Week 2)	Property ([2]; initial)	further results
CN1CC[C@@H](COC(=O)Nc2ccccc2-c2ccc(F)c(Cl)c2)C1.O=C(O)C(=O)O [form III, (R)-(1-methylpyrrolidine-3-yl)methyl(3′-chloro-4′-fluoro-[1,1′-biphenyl]-2-yl)carbamate oxalate]	form III	99.79	form III	99.80	form III	99.82	form III	99.79	form III	99.81	stable										
CN1CC[C@@H](COC(=O)Nc2ccccc2-c2ccc(F)c(Cl)c2)C1.O=C(O)C(=O)O [form I, (R)-(1-methylpyrrolidine-3-yl)methyl(3′-chloro-4′-fluoro-[1,1′-biphenyl]-2-yl)carbamate oxalate]	form I	99.55	form I	99.60	form I	99.71	form I	99.61	form I	99.66	stable										
CN1CC[C@@H](COC(=O)Nc2ccccc2-c2ccc(F)c(Cl)c2)C1.O=C(O)C(=O)O [form II, (R)-(1-methylpyrrolidine-3-yl)methyl(3′-chloro-4′-fluoro-[1,1′-biphenyl]-2-yl)carbamate oxalate]	form II	99.83	form II	99.81	form II	99.85	form II	99.79	form II	99.87	stable										
CN1CC[C@@H](COC(=O)Nc2ccccc2-c2ccc(F)c(Cl)c2)C1.O=C(O)C(=O)O [Oxalate, (R)-(1-methylpyrrolidine-3-yl)methyl(3′-chloro-4′-fluoro-[1,1′-biphenyl]-2-yl)carbamate oxalate]												Solid	99.3/ %	Solid	99.4/ %	Solid	99.3/ %	Solid	99.4/ %	Solid	Relative purity ([2]; initial): 99.3/ %; Change in purity ([2]; under the stress condition): do not show a change in purity; Physical state ([2]; under the stress condition): kept in an unmelted state; Property ([3]; Week 1): Solid; Relative purity (%) ([3]; Week 1): 99.3%; Property ([3]; Week 2): Solid; Relative purity (%) ([3]; Week 2): 99.3%; Property ([3]; Week 3): Solid; Relative purity (%) ([3]; Week 3): 99.3%; Property ([3]; Week 4): Solid; Relative purity (%) ([3]; Week 4): 99.3%; Property ([3]; initial): Solid; Relative purity (%) ([3]; initial): 99.3%; Change in purity [3]: do not show a change in purity
CN1CC[C@@H](COC(=O)Nc2ccccc2-c2ccc(F)c(Cl)c2)C1.O=P(O)(O)O [Phosphate]												Dissolved	98.4/ %	Dissolved	98.4/ %	Dissolved	98.4/ %	Dissolved	98.4/ %	Solid	Relative purity ([2]; initial): 98.4/ %; Change in purity ([2]; under the stress condition): do not show a change in purity; Property ([3]; Week 1): Dissolved; Relative purity (%) ([3]; Week 1): 98.3%; Property ([3]; Week 2): Dissolved; Relative purity (%) ([3]; Week 2): 98.3%; Property ([3]; Week 3): Dissolved; Relative purity (%) ([3]; Week 3): 98.4%; Property ([3]; Week 4): Dissolved; Relative purity (%) ([3]; Week 4): 98.4%; Property ([3]; initial): Solid; Relative purity (%) ([3]; initial): 98.4%; Change in purity [3]: do not show a change in purity; Physical state [3]: show a melting phenomenon
(R)-(1-methylpyrrolidine-3-yl)methyl(3′-chloro-4′-fluoro-[1,1′-biphenyl]-2-yl)carbamate citrate												Dissolved	97.8/ %	Dissolved	97.9/ %	Dissolved	97.7/ %	Dissolved	97.7/ %	Solid	Relative purity ([2]; initial): 97.7/ %; Change in purity ([2]; under the stress condition): do not show a change in purity; Property ([3]; Week 1): Solid; Relative purity (%) ([3]; Week 1): 97.7%; Property ([3]; Week 2): Solid; Relative purity (%) ([3]; Week 2): 97.6%; Property ([3]; Week 3): Dissolved; Relative purity (%) ([3]; Week 3): 97.7%; Property ([3]; Week 4): Dissolved; Relative purity (%) ([3]; Week 4): 97.4%; Property ([3]; initial): Solid; Relative purity (%) ([3]; initial): 97.7%; Change in purity [3]: do not show a change in purity; Physical state [3]: show a melting phenomenon
